Data published in patent publication US11613531B2, “Inhibitors of RHO associated coiled-coil containing protein kinase” (Kadmon Corporation, LLC, priority 2017, dated 2023).
pIC50: −log10 of the molar value. Where two headings read alike, the source gives them in different places.

Legend:
[1] = target: Recombinant ROCK1 (amino acids 1-535) (Homo sapiens (Human), UniProt Q13464); experiment: Z′-Lyte kinase assay, ROCK1; type: biochemical
Summary of the method: (§1)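 IC50s derive from nonlinear curve fits over a 9-point, 2-fold dilution series, with single-point inhibition at 1 μM expressed relative to DMSO. Activity of truncated human ROCK1 (residues 1-535) and ROCK2 (residues 1-552) measured with the Z′-Lyte kinase format.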

[2] = target: Recombinant ROCK2 (amino acids 1-552) (Homo sapiens (Human), UniProt O75116); experiment: Z′-Lyte kinase assay, ROCK2; type: biochemical; details: for inhibition at 1 µM: 1 μM compound
Chain of Recombinant ROCK2 (amino acids 1-552) (O75116 1-552): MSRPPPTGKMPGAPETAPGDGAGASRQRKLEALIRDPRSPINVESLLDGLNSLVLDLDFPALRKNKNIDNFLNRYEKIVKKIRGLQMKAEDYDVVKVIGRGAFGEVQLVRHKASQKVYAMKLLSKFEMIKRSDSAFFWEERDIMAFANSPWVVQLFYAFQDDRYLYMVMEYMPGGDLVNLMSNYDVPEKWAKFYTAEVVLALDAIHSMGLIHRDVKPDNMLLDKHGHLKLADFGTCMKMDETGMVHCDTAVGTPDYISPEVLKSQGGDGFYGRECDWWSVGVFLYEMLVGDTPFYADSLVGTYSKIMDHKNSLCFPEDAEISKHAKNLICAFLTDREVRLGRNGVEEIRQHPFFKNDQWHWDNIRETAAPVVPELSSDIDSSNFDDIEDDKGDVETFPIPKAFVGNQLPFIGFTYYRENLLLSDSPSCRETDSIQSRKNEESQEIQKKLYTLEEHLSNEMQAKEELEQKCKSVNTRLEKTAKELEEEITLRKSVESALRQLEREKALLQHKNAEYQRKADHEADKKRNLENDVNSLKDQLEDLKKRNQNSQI
Summary of the method: as §1

[3] = system: ppMlc (T18/S19) levels in A7R5 cells; experiment: A7R5 in-cell ELISA (pMLC); type: cell-based, Rat; details: Rattus norvegicus, A7R5, A7R5 cells; for inhibition at 1 µM: 1 μM compound; for inhibition at 1 µM / inhibition at 10 µM: read-out: pMLC % inh A7R5 @ [conc]; for inhibition at 10 µM: 10 μM compound
Summary of the method: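 Cellular IC50 came from a nonlinear regression fit of ppMlc (T18/S19) signal, read by colorimetric in-cell ELISA on fixed cells. Rat A7R5 aortic smooth muscle cells had been exposed for 90 min to compounds in 9-point 2-fold serial dilution, 24 h after seeding.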

[4] = system: human ACTA2 gene promoter luciferase reporter in NIH3T3 cells; experiment: NIH3T3 Acta2-promoter driven-luciferase assay; type: cell-based; details: read-out: NIH3T3 Acta2-luc, IC50
Procedure: NIH3T3 Cells Acta2-Promoter Driven-Luciferase Assay.
A NIH3T3 cell line stably expressing a luciferase reporter driven by the human ACTA2 gene promoter (−1000-1 bp) was established (NIH3T3-Acta2-luciferase). The cells were plated to confluence and treated with the test compounds plus TGFβ1 for 24 hr. Cells were then lysed and luciferase activity was measured using the LightSwitch luciferase kit from Active Motif.
In vitro activities for the compounds were measured with Z′-lyte kinase kit (ThermoFisher Scientific). The percent inhibition rate was calculated by normalizing the kinase activity value obtained with 1 μM compound treatment against DMSO control value and then applied to the formula, [1-(compound/DMSO)]×100%. IC50s were calculated using the nonlinear regression curve fit function of the GraphPad Prism software with kinase activities data measured with 9 points 2-fold serial dilution of compounds treatment. In cell pMLC IC50s were calculated with data obtained from A7R5 cell experiments. A7R5 cells were treated with 9 points 2-fold serial dilution of compounds and ppMlc (T18/S19) levels were determined to calculate cellular IC50 values of the compounds using the nonlinear regression curve fit function of the GraphPad Prism software. NIH3T3 cells stably expressing ACTA2-promoter-driven-luciferase were applied to measure ROCK compounds functional IC50s in cells. Cells were plated in 96 well plates to confluence and treated with 9 points serial dilution of compounds in combination with TGFβ1 for 24 hr. Luciferase activities were measured and compound's IC50s were calculated using the nonlinear regression curve fit function of the GraphPad Prism software.
ROCK inhibitors can be effectively rank ordered by ACTA2-promoter-driven-luciferase reporter cell assay. NIH3T3 cells stably expressing ACTA2-promoter-driven-luciferase were plated in 96 well plates to confluence and treated with 9 points serial dilution of compounds in combination with TGFβ1 for 24 hr. Luciferase activities were measured and compound's IC50s were calculated. By this assay multiple compounds of the invention gave IC50s under 200 nM.

[5] = read-out: ROCK2 % inh. @ [conc]
[6] = NIH3T3, 24 h, with TGFβ1, 24 hr
[7] = 9 points 2-fold serial dilution
[8] = NIH3T3, 24 h, NIH3T3 cells, plus TGFβ1 for 24 hr

Chain of Recombinant ROCK1 (amino acids 1-535) (Q13464 1-535): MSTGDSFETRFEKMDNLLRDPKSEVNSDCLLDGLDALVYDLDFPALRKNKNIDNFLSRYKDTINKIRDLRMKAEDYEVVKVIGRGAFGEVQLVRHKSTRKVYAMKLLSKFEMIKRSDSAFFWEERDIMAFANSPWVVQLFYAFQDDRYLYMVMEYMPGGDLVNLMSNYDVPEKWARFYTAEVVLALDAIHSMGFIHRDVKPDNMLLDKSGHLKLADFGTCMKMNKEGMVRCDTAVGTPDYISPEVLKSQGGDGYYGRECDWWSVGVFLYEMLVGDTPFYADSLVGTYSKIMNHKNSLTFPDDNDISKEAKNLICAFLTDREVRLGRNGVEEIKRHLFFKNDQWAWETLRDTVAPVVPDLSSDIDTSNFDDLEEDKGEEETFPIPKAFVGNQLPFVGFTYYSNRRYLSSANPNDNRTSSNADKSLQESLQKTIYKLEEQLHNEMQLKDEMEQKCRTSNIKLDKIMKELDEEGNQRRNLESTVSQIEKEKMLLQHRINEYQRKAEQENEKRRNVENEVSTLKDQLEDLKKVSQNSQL

| Compound | IC50 [3] [nM] | inhibition at 1 µM [3] [%] | pIC50 [4, 6] | pIC50 [1, 7] | pIC50 [2, 7] | IC50 ([3]; ppMlc (T18/S19)) [nM] | pIC50 [4, 8] | pIC50 [2] | other results |
| --- | --- | --- | --- | --- | --- | --- | --- | --- | --- |
| Cc1nc(N2C3CCC2CNC3)nc(Nc2ccc3[nH]ncc3c2)c1C [Example 29, N-(2-(3,8-diazabicyclo[3.2.1]octan-8-yl)-5,6-dimethylpyrimidin-4-yl)-1H-indazol-5-amine] | 147 | 39.1 | 5.96 | – | – | – | – | – | pIC50 [1]: 7.38; inhibition at 1 µM [2, 5]: 102% |
| Cc1cc(Nc2ccc3[nH]ncc3c2)nc(N2CCCNCC2C)n1 (stereo not drawn) [Example 117, N-(6-methyl-2-(2-methyl-1,4-diazepan-1-yl)pyrimidin-4-yl)-1H-indazol-5-amine] | – | 50.6 | – | 7.82 | 7.35 | 168 | 5.89 | – | – |
| Clc1cnc(N2CC3CC2CN3)nc1Nc1ccc2[nH]ncc2c1 (stereo not drawn) [Example 194, N-(2-(2,5-diazabicyclo[2.2.1]heptan-2-yl)-5-chloropyrimidin-4-yl)-1H-indazol-5-amine] | – | 31.6 | – | 7.39 | 7.64 | 176 | 5.81 | – | inhibition at 1 µM [2, 5]: 98.3% |
| COc1cnc(N2C3CCC2CNC3)nc1Nc1ccc2[nH]ncc2c1 [Example 198, N-(2-(3,8-diazabicyclo[3.2.1]octan-8-yl)-5-methoxypyrimidin-4-yl)-1H-indazol-5-amine] | 57 | 38 | 6.38 | – | – | – | – | 8.30 | pIC50 [1]: 8.39; inhibition at 1 µM [2, 5]: 104% |
| c1cc(Nc2ccc3[nH]ncc3c2)nc(N2C3CNCC2C3)n1 [Example 200, N-(2-(3,6-diazabicyclo[3.1.1]heptan-6-yl)pyrimidin-4-yl)-1H-indazol-5-amine] | – | – | – | 7.55 | 8.80 | 275 | 5.80 | – | inhibition at 10 µM [3]: 49.8% |
| c1cc(Nc2ccc3[nH]ncc3c2)nc(N2CC3CC2CN3)n1 (stereo not drawn) [Example 201, N-(2-(2,5-diazabicyclo[2.2.1]heptan-2-yl)pyrimidin-4-yl)-1H-indazol-5-amine] | – | 50.1 | – | 7.43 | 7.57 | 168 | 5.79 | – | – |
| Cc1cc(Nc2ccc3[nH]ncc3c2)nc(N2CCNC(C)C2)n1 (stereo not drawn) [Example 204, N-(6-methyl-2-(3-methylpiperazin-1-yl)pyrimidin-4-yl)-1H-indazol-5-amine] | – | – | – | 7.70 | 7.07 | 231 | 5.75 | – | inhibition at 10 µM [3]: 70% |
| Cc1cc(Nc2ccc3[nH]ncc3c2)nc(N2CCNCC2C)n1 (stereo not drawn) [Example 207, N-(6-methyl-2-(2-methylpiperazin-1-yl)pyrimidin-4-yl)-1H-indazol-5-amine] | – | – | – | 7.39 | 6.98 | 351 | 5.90 | – | inhibition at 1 µM [2, 5]: 91%; inhibition at 10 µM [3]: 52.3% |
| Cc1cc(Nc2ccc3[nH]ncc3c2)nc(N2C3CCC2CNC3)n1 [Example 209, N-(2-(3,8-diazabicyclo[3.2.1]octan-8-yl)-6-methylpyrimidin-4-yl)-1H-indazol-5-amine] | – | 53.2 | – | 8.30 | 7.47 | 47 | 6.48 | – | – |
| Cc1cc(Nc2ccc3[nH]ncc3c2)nc(N2C3CNCC2C3)n1 [Example 213, N-(2-(3,6-diazabicyclo[3.1.1]heptan-6-yl)-6-methylpyrimidin-4-yl)-1H-indazol-5-amine] | – | 34 | – | 9.70 | 8.80 | 60 | 6.64 | – | inhibition at 1 µM [2, 5]: 101% |
| Fc1cnc(N2CCNCC2)nc1Nc1ccc2[nH]ncc2c1 [Example 214, N-(5-fluoro-2-(piperazin-1-yl)pyrimidin-4-yl)-1H-indazol-5-amine] | – | – | – | 7.42 | 7.59 | 323 | 5.90 | – | inhibition at 10 µM [3]: 63% |
| Fc1cnc(N2CCCNCC2)nc1Nc1ccc2[nH]ncc2c1 [Example 215, N-(2-(1,4-diazepan-1-yl)-5-fluoropyrimidin-4-yl)-1H-indazol-5-amine] | – | – | – | 7.40 | 7.43 | 201 | 5.91 | – | inhibition at 10 µM [3]: 68.5%; pIC50 ([4]; NIH3T3 cells, plus TGFβ1 for 24 hr): 5.75 |
| Fc1cnc(N2CC3CCC(C2)N3)nc1Nc1ccc2[nH]ncc2c1 [Example 217, N-(2-(3,8-diazabicyclo[3.2.1]octan-3-yl)-5-fluoropyrimidin-4-yl)-1H-indazol-5-amine] | – | 51.2 | – | 8.22 | 7.55 | 127 | 6.02 | – | – |
| CC1CNCCN(c2ncc(F)c(Nc3ccc4[nH]ncc4c3)n2)C1 (stereo not drawn) [Example 218, N-(5-fluoro-2-(6-methyl-1,4-diazepan-1-yl)pyrimidin-4-yl)-1H-indazol-5-amine] | – | 53 | – | 7.19 | – | 430 | 5.21 | – | inhibition at 1 µM [2, 5]: 99.5% |
| Fc1cnc(N2CC3CC2CN3)nc1Nc1ccc2[nH]ncc2c1 (stereo not drawn) [Example 219, N-(2-(2,5-diazabicyclo[2.2.1]heptan-2-yl)-5-fluoropyrimidin-4-yl)-1H-indazol-5-amine] | – | 46.6 | – | 7.74 | 7.39 | 77 | 6.21 | – | – |
| COc1nc(N2C3CCC2CNC3)nc(Nc2ccc3[nH]ncc3c2)c1F [Example 319, N-(2-(3,8-diazabicyclo[3.2.1]octan-8-yl)-5-fluoro-6-methoxypyrimidin-4-yl)-1H-indazol-5-amine] | – | – | 7.23 | – | – | – | – | 8.96 | inhibition at 0.5 µM ([1]; 0.5 μM compound, read-out: ROCK1 % inh. @ [conc]): 98%; inhibition at 0.5 µM ([2]; 0.5 μM compound, read-out: ROCK2 % inh. @ [conc]): 100% |
| Cc1c(C#N)nc(N2C3CCC2CNC3)nc1Nc1ccc2[nH]ncc2c1 [Example 333, 6-((1H-indazol-5-yl)amino)-2-(3,8-diazabicyclo[3.2.1]octan-8-yl)-5-methylpyrimidine-4-carbonitrile] | 577 | – | 5.80 | – | – | – | – | 7.36 | – |
| CNC1CC2CC1CN2c1ncc(F)c(Nc2ccc3[nH]ncc3c2)n1 (stereo not drawn) [Example 334, N-(5-fluoro-2-(5-(methylamino)-2-azabicyclo[2.2.1]heptan-2-yl)pyrimidin-4-yl)-1H-indazol-5-amine] | 889 | – | 5.78 | – | – | – | – | 6.92 | – |
| FC(F)(F)c1nc(N2C3CCC2CNC3)nc(Nc2ccc3[nH]ncc3c2)c1Cl [Example 340, N-(2-(3,8-diazabicyclo[3.2.1]octan-8-yl)-5-chloro-6-(trifluoromethyl)pyrimidin-4-yl)-1H-indazol-5-amine] | 362 | – | 6.05 | – | – | – | – | 7.70 | – |
| FC(F)(F)c1cc(Nc2ccc3[nH]ncc3c2)nc(N2C3CCC2CNC3)n1 [Example 341, N-(2-(3,8-diazabicyclo[3.2.1]octan-8-yl)-6-(trifluoromethyl)pyrimidin-4-yl)-1H-indazol-5-amine] | 27 | – | 7.24 | – | – | – | – | 8.24 | – |
| CN(C)c1nc(N2C3CCC2CNC3)nc(Nc2ccc3[nH]ncc3c2)c1F [Example 342] | 26 | – | 5.71 | – | – | – | – | 10.00 | – |
| Cc1nc(N2C3CCC2CNC3)nc(Nc2ccc3[nH]ncc3c2)c1C#N [Example 343, 4-((1H-indazol-5-yl)amino)-2-(3,8-diazabicyclo[3.2.1]octan-8-yl)-6-methylpyrimidine-5-carbonitrile] | 127 | – | 6.65 | – | – | – | – | 8.25 | – |
| CN(C)c1nc(N2C3CCC2CNC3)nc(Nc2ccc3[nH]ncc3c2)c1Cl [Example 344, 2-(3,8-diazabicyclo[3.2.1]octan-8-yl)-5-chloro-N^4-(1H-indazol-5-yl)-N^6,N^6-dimethylpyrimidine-4,6-diamine] | 82 | – | 6.72 | – | – | – | – | 8.77 | – |
